{"source": "the supplement of paper PMC10307832", "test_in_all_cases": "relative viability (nuclei count vs DMSO), 5 days (fraction); higher = more cells survive", "key": {"EKVX": {"tested_on": "EKVX", "how_it_was_run": "(§1)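 Relative viability is defined as nuclei in treated wells over nuclei in vehicle wells. Duplicate plates were run and medians reported. Lung cancer cell lines in 1536-well plates were dosed by pin tool one day after seeding, with one drug or with a fixed anchor-drug dose plus five library-drug doses (not always all listed) in √10 steps, and nuclei were counted after 5 days.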"}, "EMC-BAC-2": {"tested_on": "EMC-BAC-2", "how_it_was_run": "as §1"}, "H3255": {"tested_on": "H3255", "how_it_was_run": "as §1"}, "HARA": {"tested_on": "HARA", "how_it_was_run": "as §1"}, "HCC-15": {"tested_on": "HCC-15", "how_it_was_run": "as §1"}, "HCC-827": {"tested_on": "HCC-827", "how_it_was_run": "as §1"}, "LC-2-ad": {"tested_on": "LC-2-ad", "how_it_was_run": "as §1"}, "LCLC-97TM1": {"tested_on": "LCLC-97TM1", "how_it_was_run": "as §1"}, "LU99A": {"tested_on": "LU99A", "how_it_was_run": "as §1"}, "NCI-H1437": {"tested_on": "NCI-H1437", "how_it_was_run": "as §1"}, "NCI-H1792": {"tested_on": "NCI-H1792", "how_it_was_run": "as §1"}, "NCI-H1793": {"tested_on": "NCI-H1793", "how_it_was_run": "as §1"}, "NCI-H1915": {"tested_on": "NCI-H1915", "how_it_was_run": "as §1"}, "NCI-H1944": {"tested_on": "NCI-H1944", "how_it_was_run": "as §1"}, "NCI-H2126": {"tested_on": "NCI-H2126", "how_it_was_run": "as §1"}, "NCI-H23": {"tested_on": "NCI-H23", "how_it_was_run": "as §1"}, "NCI-H322M": {"tested_on": "NCI-H322M", "how_it_was_run": "as §1"}, "NCI-H441": {"tested_on": "NCI-H441", "how_it_was_run": "as §1"}, "NCI-H460": {"tested_on": "NCI-H460", "how_it_was_run": "as §1"}, "NCI-H661": {"tested_on": "NCI-H661", "how_it_was_run": "as §1"}, "PC-3 [JPC-3]": {"tested_on": "PC-3 [JPC-3]", "how_it_was_run": "as §1"}, "SK-LU-1": {"tested_on": "SK-LU-1", "how_it_was_run": "as §1"}}, "data": [{"compound": "Cc1cnc(-c2cnc(NCCNc3ccc(C#N)cn3)nc2-c2ccc(Cl)cc2Cl)[nH]1", "note": "+ Cc1nc(NC(=O)N2CCC[C@H]2C(N)=O)sc1-c1ccnc(C(C)(C)C(F)(F)F)c1 [Alpelisib] (partner 2 µM)", "values": [{"measurement": "relative viability", "setting": "EKVX; first compound 0.08 µM", "result": 1.04}, {"measurement": "relative viability", "setting": "EKVX; first compound 0.253 µM", "result": 0.739}, {"measurement": "relative viability", "setting": "EKVX; first compound 0.8 µM", "result": 0.839}, {"measurement": "relative viability", "setting": "EKVX; first compound 2.53 µM", "result": 0.766}, {"measurement": "relative viability", "setting": "EMC-BAC-2; first compound 0.08 µM", "result": 0.8}, {"measurement": "relative viability", "setting": "EMC-BAC-2; first compound 0.253 µM", "result": 0.72}, {"measurement": "relative viability", "setting": "EMC-BAC-2; first compound 0.8 µM", "result": 0.743}, {"measurement": "relative viability", "setting": "EMC-BAC-2; first compound 2.53 µM", "result": 0.749}, {"measurement": "relative viability", "setting": "H3255; first compound 0.08 µM", "result": 0.886}, {"measurement": "relative viability", "setting": "H3255; first compound 0.253 µM", "result": 0.618}, {"measurement": "relative viability", "setting": "H3255; first compound 0.8 µM", "result": 0.802}, {"measurement": "relative viability", "setting": "H3255; first compound 2.53 µM", "result": 0.73}, {"measurement": "relative viability", "setting": "HARA; first compound 0.08 µM", "result": 0.994}, {"measurement": "relative viability", "setting": "HARA; first compound 0.253 µM", "result": 0.673}, {"measurement": "relative viability", "setting": "HARA; first compound 0.8 µM", "result": 0.746}, {"measurement": "relative viability", "setting": "HARA; first compound 2.53 µM", "result": 0.827}, {"measurement": "relative viability", "setting": "HCC-15; first compound 0.08 µM", "result": 0.857}, {"measurement": "relative viability", "setting": "HCC-15; first compound 0.253 µM", "result": 0.815}, {"measurement": "relative viability", "setting": "HCC-15; first compound 0.8 µM", "result": 0.853}, {"measurement": "relative viability", "setting": "HCC-15; first compound 2.53 µM", "result": 0.881}, {"measurement": "relative viability", "setting": "HCC-827; first compound 0.08 µM", "result": 1.08}, {"measurement": "relative viability", "setting": "HCC-827; first compound 0.8 µM", "result": 0.99}, {"measurement": "relative viability", "setting": "HCC-827; first compound 2.53 µM", "result": 0.929}, {"measurement": "relative viability", "setting": "LC-2-ad; first compound 0.08 µM", "result": 1.04}, {"measurement": "relative viability", "setting": "LC-2-ad; first compound 0.8 µM", "result": 0.832}, {"measurement": "relative viability", "setting": "LC-2-ad; first compound 2.53 µM", "result": 0.892}, {"measurement": "relative viability", "setting": "LCLC-97TM1; first compound 0.08 µM", "result": 0.28}, {"measurement": "relative viability", "setting": "LCLC-97TM1; first compound 0.253 µM", "result": 0.176}, {"measurement": "relative viability", "setting": "LCLC-97TM1; first compound 0.8 µM", "result": 0.251}, {"measurement": "relative viability", "setting": "LCLC-97TM1; first compound 2.53 µM", "result": 0.323}, {"measurement": "relative viability", "setting": "LU99A; first compound 0.08 µM", "result": 0.606}, {"measurement": "relative viability", "setting": "LU99A; first compound 0.253 µM", "result": 0.548}, {"measurement": "relative viability", "setting": "LU99A; first compound 0.8 µM", "result": 0.557}, {"measurement": "relative viability", "setting": "LU99A; first compound 2.53 µM", "result": 0.516}, {"measurement": "relative viability", "setting": "NCI-H1437; first compound 0.08 µM", "result": 0.962}, {"measurement": "relative viability", "setting": "NCI-H1437; first compound 0.253 µM", "result": 0.937}, {"measurement": "relative viability", "setting": "NCI-H1437; first compound 0.8 µM", "result": 0.909}, {"measurement": "relative viability", "setting": "NCI-H1437; first compound 2.53 µM", "result": 0.918}, {"measurement": "relative viability", "setting": "NCI-H1792; first compound 0.08 µM", "result": 0.736}, {"measurement": "relative viability", "setting": "NCI-H1792; first compound 0.253 µM", "result": 0.639}, {"measurement": "relative viability", "setting": "NCI-H1792; first compound 0.8 µM", "result": 0.625}, {"measurement": "relative viability", "setting": "NCI-H1792; first compound 2.53 µM", "result": 0.674}, {"measurement": "relative viability", "setting": "NCI-H1793; first compound 0.08 µM", "result": 0.838}, {"measurement": "relative viability", "setting": "NCI-H1793; first compound 0.253 µM", "result": 0.618}, {"measurement": "relative viability", "setting": "NCI-H1793; first compound 0.8 µM", "result": 0.973}, {"measurement": "relative viability", "setting": "NCI-H1793; first compound 2.53 µM", "result": 1.08}, {"measurement": "relative viability", "setting": "NCI-H1915; first compound 0.08 µM", "result": 1.08}, {"measurement": "relative viability", "setting": "NCI-H1915; first compound 0.8 µM", "result": 1.09}, {"measurement": "relative viability", "setting": "NCI-H1915; first compound 2.53 µM", "result": 1.01}, {"measurement": "relative viability", "setting": "NCI-H1944; first compound 0.08 µM", "result": 0.827}, {"measurement": "relative viability", "setting": "NCI-H1944; first compound 0.8 µM", "result": 0.84}, {"measurement": "relative viability", "setting": "NCI-H1944; first compound 2.53 µM", "result": 0.824}, {"measurement": "relative viability", "setting": "NCI-H2126; first compound 0.08 µM", "result": 0.725}, {"measurement": "relative viability", "setting": "NCI-H2126; first compound 0.253 µM", "result": 0.756}, {"measurement": "relative viability", "setting": "NCI-H2126; first compound 0.8 µM", "result": 0.669}, {"measurement": "relative viability", "setting": "NCI-H2126; first compound 2.53 µM", "result": 0.766}, {"measurement": "relative viability", "setting": "NCI-H23; first compound 0.08 µM", "result": 0.819}, {"measurement": "relative viability", "setting": "NCI-H23; first compound 0.253 µM", "result": 0.591}, {"measurement": "relative viability", "setting": "NCI-H23; first compound 0.8 µM", "result": 0.818}, {"measurement": "relative viability", "setting": "NCI-H23; first compound 2.53 µM", "result": 0.72}, {"measurement": "relative viability", "setting": "NCI-H322M; first compound 0.08 µM", "result": 0.773}, {"measurement": "relative viability", "setting": "NCI-H322M; first compound 0.253 µM", "result": 0.754}, {"measurement": "relative viability", "setting": "NCI-H322M; first compound 0.8 µM", "result": 0.709}, {"measurement": "relative viability", "setting": "NCI-H322M; first compound 2.53 µM", "result": 0.733}, {"measurement": "relative viability", "setting": "NCI-H441; first compound 0.08 µM", "result": 0.759}, {"measurement": "relative viability", "setting": "NCI-H441; first compound 0.253 µM", "result": 0.668}, {"measurement": "relative viability", "setting": "NCI-H441; first compound 0.8 µM", "result": 0.858}, {"measurement": "relative viability", "setting": "NCI-H441; first compound 2.53 µM", "result": 0.7}, {"measurement": "relative viability", "setting": "NCI-H460; first compound 0.08 µM", "result": 0.552}, {"measurement": "relative viability", "setting": "NCI-H460; first compound 0.253 µM", "result": 0.475}, {"measurement": "relative viability", "setting": "NCI-H460; first compound 0.8 µM", "result": 0.61}, {"measurement": "relative viability", "setting": "NCI-H460; first compound 2.53 µM", "result": 0.68}, {"measurement": "relative viability", "setting": "NCI-H661; first compound 0.08 µM", "result": 0.419}, {"measurement": "relative viability", "setting": "NCI-H661; first compound 0.253 µM", "result": 0.645}, {"measurement": "relative viability", "setting": "NCI-H661; first compound 0.8 µM", "result": 0.76}, {"measurement": "relative viability", "setting": "NCI-H661; first compound 2.53 µM", "result": 0.654}, {"measurement": "relative viability", "setting": "PC-3 [JPC-3]; first compound 0.08 µM", "result": 1}, {"measurement": "relative viability", "setting": "PC-3 [JPC-3]; first compound 0.253 µM", "result": 0.934}, {"measurement": "relative viability", "setting": "PC-3 [JPC-3]; first compound 0.8 µM", "result": 1.02}, {"measurement": "relative viability", "setting": "PC-3 [JPC-3]; first compound 2.53 µM", "result": 1.01}, {"measurement": "relative viability", "setting": "SK-LU-1; first compound 0.08 µM", "result": 1.09}, {"measurement": "relative viability", "setting": "SK-LU-1; first compound 0.253 µM", "result": 0.931}, {"measurement": "relative viability", "setting": "SK-LU-1; first compound 0.8 µM", "result": 1.28}, {"measurement": "relative viability", "setting": "SK-LU-1; first compound 2.53 µM", "result": 1.18}]}]}
